Reference: US5556909A, “Substituted 2-arylcarbonyloxymethyl-1,2,5-thiadiazolidin-3-one 1,1-dioxide derivatives and compositions and method of use thereof” (Sanofi Winthrop Inc., priority 1994, dated 1996)
Counter-ions that a name gives are not always drawn.

Molecular target: T1, human leukocyte elastase (Homo sapiens, UniProt P08246)
T1 sequence (P08246 30-267): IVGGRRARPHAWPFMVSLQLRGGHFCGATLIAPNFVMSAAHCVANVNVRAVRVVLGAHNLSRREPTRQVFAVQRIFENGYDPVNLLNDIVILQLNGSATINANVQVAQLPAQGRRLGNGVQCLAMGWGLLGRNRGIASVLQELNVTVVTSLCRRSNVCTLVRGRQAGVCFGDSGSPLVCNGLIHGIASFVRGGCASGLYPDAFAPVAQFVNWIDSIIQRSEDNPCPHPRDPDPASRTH
Assay: Human leukocyte elastase inhibitory activity (substrate MeOSuc-Ala-Ala-Pro-Val-pNA, microtiter plate progress curves)
Format: biochemical
Conditions: HLE, pH 7.8, 25° C., 500 mM NaCl
Method: The test compound (inhibitor) is dissolved in DMSO in a vial to produce an inhibitor stock solution which has a concentration in the range of 200-1000 μM. The inhibitor stock solution is diluted (1:4, 1:16 and 1:64) into assay vials (vials 1, 2 and 3 respectively) containing 2.4 mL of buffer solution (50 mM N- [2-hydroxyethyl ] piperazine-N'-[2-ethanesulfonic acid]/NaOH, 500 mM NaCl, pH 7.8 at 25° C.) and DMSO is added so that the total volume in each vial is 3.2 mL. 70 μL, 50 μL, 35 μL and 25 μL of inhibitor from assay vial 1 is placed into the first four wells of a 96-well microtiter plate and each well is made up to 90 μL total volume with the addition of a 25% DMSO/buffer solution. The inhibitor from assay vials 2 and 3 is processed in a similar manner and placed in wells 5-12 respectively to afford a total of 12 different inhibitor concentrations. Four wells (wells 13-16) containing 90 μL of the 25% DMSO/buffer solution but no inhibitor are also run simultaneously with the inhibited wells as a control. 150 μL of substrate solution (prepared by the addition of 500 μL of the human leukocyte elastase (HLE) substrate MeOSuc-Ala-Ala-Pro-Val-pNA (18.7 mM in DMSO) to 19.5 mL of buffer solution) is then added simultaneously into each of the 16 wells and the solution in each well was thoroughly mixed.
The 96-well microtiter plate is placed into a Microplate Reader #89815A spectrophotometer and 110 μL of the enzyme solution (prepared as follows: a mixture of 20 mL of buffer solution and 20 mg of bovine serum albumen is gently vortexed in a scintillation vial and 5 μL HLE stock solution (1 mg/mL dissolved in deionized water) is added) is added simultaneously to each of the 16 wells. Each of the solutions in the wells is throughly mixed and then the time-dependent absorbance data is collected at an absorbance of 410 nm until the assay is complete. It should be noted that although this assay method can be done manually, it is preferred to perform the assay robotically using a Hewlett Packard MicroAssay System Robot.
A plot of the absorbance versus time data thus obtained affords progress curves the final slope of which is equal to the final steady-state velocities (VF). Using the program ENZFITTER (Elsevier software), the progress curves for the four control assays ([I]=0) are fit by linear regression to yield the enzyme reaction velocity values in the absences of inhibitor (Vo) which are averaged to produce a single fixed value. The inhibition constant Ki (nM) is then obtained from a plot of [formula] which affords a linear plot wherein: [formula] and [S] is the concentration of the substrate and Km is the Michaelis constant.
Table II summarizes the results obtained from the testing of representative compounds of the invention for human leukocyte elastase inhibitory activity.

Row | SMILES | Ki
1 | CCCC1CCCN2C1C(=O)N(COC(=O)c1c(Cl)cccc1Cl)S2(=O)=O (stereo not shown) [16(j), 2-(2,6-dichlorophenylcarbonyloxymethyl)-4-propyl-1,2,5-thiadiazolo [2,3-a]3,3a, 4,5,6,7-hexahydropyridine-3-one 1,1-dioxide] | 9.6 nM
2 | CCCC1C(=O)N(COC(=O)c2c(Cl)ccc(OCCN3CCOCC3)c2Cl)S(=O)(=O)N1CC (stereo not shown) [Example 12, 2-(2,6-dichloro-3-[2-(4-morpholino]ethoxy]-phenylcarbonyloxymethyl)-4-propyl-5-ethyl-1,2,5-thiadiazolidin-3-one 1,1-dioxide methanesulfonate] | 0.45 nM
3 | O=C(OCN1C(=O)C2C3CCC(C3)N2S1(=O)=O)c1c(Cl)cccc1Cl (stereo not shown) [15(i)] | 3700 nM
4 | O=C(OCN1C(=O)C2CCCCN2S1(=O)=O)c1c(Cl)cccc1Cl (stereo not shown) [13(f), 2-(2,6-dichlorophenylcarbonyloxymethyl)-1,2,5-thiadiazolo [2,3-a]3,3a,4,5,6,7-hexahydropyridine-3-one 1:1-dioxide] | 22 nM
5 | CCCC1(C)C(=O)N(COC(=O)c2c(Cl)cccc2Cl)S(=O)(=O)N1C (stereo not shown) [6(k), 2-(2,6-dichlorophenylcarbonyloxymethyl)-4-methyl-4-propyl-5-methyl-1,2,5-thiadiazolidin-3-one 1,1-dioxide] | 120 nM
6 | CC(C)CCC1C(=O)N(COC(=O)c2c(Cl)ccc(OCCN3CCOCC3)c2Cl)S(=O)(=O)N1C (stereo not shown) [10(b), 2-(2,6-dichloro-3-[2-(4-morpholino)ethoxy]phenyl-carbonyloxymethyl)-4-(3-methylbutyl)-5-methyl-1,2,5-thiadiazolidin-3-one 1,1-dioxide] | 0.2 nM
7 | CCCC1C(=O)N(COC(=O)c2c(Cl)cccc2Cl)S(=O)(=O)N1CC (stereo not shown) [5(e), 2-(2,6-dichloro-phenylcarbonyloxymethyl)-4-propyl-5-ethyl-1,2,5-thiadiazolidin-3-one 1,1-dioxide] | 0.5 nM

The remaining molecules from weak to strong by Ki, led by results:

Row | Ki | SMILES
8 | 350 nM | CC(C)C1NS(=O)(=O)N(COC(=O)c2c(Cl)cccc2Cl)C1=O (stereo not shown) [2(f), 2-(2,6-dichlorophenylcarbonyloxymethyl)-4-isopropyl-1,2,5-thiadiazolidin-3-one 1,1-dioxide]
9 | 170 nM | O=C(OCN1C(=O)C2CCCN2S1(=O)=O)c1c(Cl)cccc1Cl (stereo not shown) [14(f), 2-(2,6-dichlorophenylcarbonyloxymethyl) tetrahydropyrrolo[1,2-b]-1,2,5-thiadiazol-3(2H)-one 1,1-dioxide]
10 | 25 nM | CC(C)C1C(=O)N(COC(=O)c2c(Cl)cccc2Cl)S(=O)(=O)N1C (stereo not shown) [4(f), 2-(2,6-dichlorophenylcarbonyloxymethyl)-4-isopropyl-5-methyl-1,2,5-thiadiazolidin-3-one 1,1-dioxide]
11 | 12 nM | CCCC1NS(=O)(=O)N(COC(=O)c2c(Cl)cccc2Cl)C1=O (stereo not shown) [1(f), 2-(2,6-dichlorophenylcarbonyloxymethyl)-4-propyl-1,2,5-thiadiazolidin-3-one 1,1-dioxide]
12 | 4.4 nM | CN1C(CCC(C)(C)Cl)C(=O)N(COC(=O)c2c(Cl)cccc2Cl)S1(=O)=O (stereo not shown) [7(h), 2-(2,6-dichlorophenylcarbonyloxymethyl) -4-(3-methyl-3-chlorobutyl)-5-methyl-1,2,5-thiadiazolidin-3-one 1,1-dioxide]
13 | 0.62 nM | CN1C(Cc2ccccc2)C(=O)N(COC(=O)c2c(Cl)cccc2Cl)S1(=O)=O (stereo not shown) [11(g), 2-(2,6-dichloro-phenylcarbonyloxymethyl)-4-phenylmethyl-5-methyl-1,2,5-thiadiazolidin-3-one 1,1-dioxide]
14 | 0.26 nM | CC(C)CCC1C(=O)N(COC(=O)c2c(Cl)ccc(OCCN3CCCC3)c2Cl)S(=O)(=O)N1C (stereo not shown) [9(c), 2-(2,6-dichloro-3-(2-pyrrolidinoethoxy)phenylcarbonyloxymethyl)-4-(3-methylbutyl)-5-methyl-1,2,5-thiadiazolidin-3-one 1,1-dioxide hydrochloride]
15 | 0.11 nM | CCCC1C(=O)N(COC(=O)c2c(Cl)cccc2Cl)S(=O)(=O)N1C (stereo not shown) [3(i), 2-(2,6-dichlorophenylcarbonyloxy-methyl)-4-propyl-5-methyl-1,2,5-thiadiazolidin-3-one 1,1-dioxide]
16 | 0.06 nM | CC(C)CCC1C(=O)N(COC(=O)c2c(Cl)cccc2Cl)S(=O)(=O)N1C (stereo not shown) [8(i)]
